{
  "source": "paper PMC11428108",
  "about": "(Frontiers in Molecular Neuroscience, 2024)",
  "key": {"[1]": {"target": "T1, human (α3)2(β2)2α5 nAChRs (Homo sapiens, UniProt P17787+P30532+P32297)", "T1 construct": "expressed in transfected cells", "T1 sequence (P32297 32-505)": "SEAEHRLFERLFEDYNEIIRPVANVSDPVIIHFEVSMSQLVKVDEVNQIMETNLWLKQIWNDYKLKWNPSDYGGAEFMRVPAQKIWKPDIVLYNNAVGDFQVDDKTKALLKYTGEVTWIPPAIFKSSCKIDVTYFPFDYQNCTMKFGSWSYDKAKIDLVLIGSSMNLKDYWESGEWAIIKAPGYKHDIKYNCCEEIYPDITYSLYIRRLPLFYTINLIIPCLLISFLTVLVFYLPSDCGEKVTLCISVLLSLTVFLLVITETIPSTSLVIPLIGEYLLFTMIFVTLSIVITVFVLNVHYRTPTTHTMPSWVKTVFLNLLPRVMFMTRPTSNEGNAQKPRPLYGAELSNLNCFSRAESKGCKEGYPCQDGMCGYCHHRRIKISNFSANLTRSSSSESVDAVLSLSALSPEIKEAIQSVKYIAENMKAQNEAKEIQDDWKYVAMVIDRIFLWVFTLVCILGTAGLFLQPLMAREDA", "T1 sequence (P17787 26-502)": "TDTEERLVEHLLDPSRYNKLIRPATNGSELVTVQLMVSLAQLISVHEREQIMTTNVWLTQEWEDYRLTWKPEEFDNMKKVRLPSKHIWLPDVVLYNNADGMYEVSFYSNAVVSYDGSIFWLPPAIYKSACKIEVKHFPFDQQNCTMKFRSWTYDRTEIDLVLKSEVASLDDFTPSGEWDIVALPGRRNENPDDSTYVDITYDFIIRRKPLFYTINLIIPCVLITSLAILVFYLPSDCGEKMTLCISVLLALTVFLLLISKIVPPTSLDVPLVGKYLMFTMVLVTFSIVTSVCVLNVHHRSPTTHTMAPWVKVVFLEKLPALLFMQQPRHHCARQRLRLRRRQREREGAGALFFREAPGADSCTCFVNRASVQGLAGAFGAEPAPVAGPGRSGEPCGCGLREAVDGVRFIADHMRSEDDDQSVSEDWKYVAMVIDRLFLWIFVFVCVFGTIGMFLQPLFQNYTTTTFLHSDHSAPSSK", "T1 sequence (P30532 23-468)": "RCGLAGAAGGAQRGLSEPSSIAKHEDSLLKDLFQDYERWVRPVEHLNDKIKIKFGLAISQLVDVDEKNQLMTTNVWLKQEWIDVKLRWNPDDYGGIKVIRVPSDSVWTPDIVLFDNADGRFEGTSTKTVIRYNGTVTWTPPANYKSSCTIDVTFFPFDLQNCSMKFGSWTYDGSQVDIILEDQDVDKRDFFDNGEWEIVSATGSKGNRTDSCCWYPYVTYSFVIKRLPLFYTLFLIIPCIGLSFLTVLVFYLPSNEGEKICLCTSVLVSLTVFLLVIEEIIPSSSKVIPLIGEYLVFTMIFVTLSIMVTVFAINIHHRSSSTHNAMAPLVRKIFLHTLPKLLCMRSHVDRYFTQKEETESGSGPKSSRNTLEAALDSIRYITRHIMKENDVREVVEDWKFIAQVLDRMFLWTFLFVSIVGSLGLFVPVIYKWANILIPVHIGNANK", "experiment": "FLEXstation membrane potential assay in HEK cells stably expressing (α3)2(β2)2α5 nAChRs", "format": "cell-based", "settings": "SR9883 0.0005–10 μM", "text": "Human embryonic kidney (HEK) cell lines stably expressing human (α4)2(β2)2β2/α4 (α4β2*) nAChRs, (α4)2(β2)2α5 nAChRs, (α4)2(β2)2β3 nAChRs, (α3)2(β4)2α3/β4 (α3β4*) nAChRs, (α3)2(β2)2α3/β2 (α3β2*) nAChRs, (α3)2(β4)2α5 nAChRs, or (α3)2(β2)2α5 nAChRs were maintained as described previously ([Wang et al., 2015]; [Kuryatov et al., 2005]; [Caligiuri et al., 2022]). The FLEXstation bench top scanning fluorometer from Molecular Devices was used to assay nAChR function in these cells, according to published protocols ([Wang et al., 2015]; [Kuryatov et al., 2005]). The membrane potential kit (Molecular Devices) was used according to the manufacturer’s protocols. Serial dilutions of SR9883 were manually added to the assay plate 15 min prior to recording. […] Potency and efficacy were calculated using the Hill equation as described previously ([Wang et al., 2015]).\nConcentration-response curves of SR9883 actions in nAChR-expressing HEK cells and oocytes were fitted to the Hill equation using a nonlinear least squares curve fit method and efficacy and potency values were calculated as previously described ([Wang et al., 2015]). […] For the ICSS threshold experiment, percentages of baseline reward threshold scores were calculated by expressing the absolute threshold scores as a percentage of the scores obtained during baseline. […] Response latency data were analyzed in the same manner as the threshold data. […]"}, "male C57BL/6J mice": {"tested_on": "male C57BL/6J mice", "experiment": "Intracranial self-stimulation (ICSS) thresholds in mice with saline or nicotine osmotic minipumps", "format": "in vivo", "settings": "SR9883 10 mg kg^−1 IP", "text": "Mice were anesthetized with a mixture of isoflurane (1–3%) and oxygen vapor then positioned in a stereotaxic frame in the flat-skull position (Kopf Instruments) ([Fowler et al., 2013]; [Johnson et al., 2008]). A stainless-steel bipolar electrode (Plastics One) was implanted into the lateral hypothalamus according to the following stereotaxic coordinates: Anterior/Posterior: −0.5 mm from bregma; […] Dorsal/Ventral: −5.0 mm from brain surface ([Fowler et al., 2013]; [Johnson et al., 2008]; [Paxinos and Franklin, 2001]). Mice were permitted 72 h to recover from surgery prior to training in the ICSS procedure. Mice were permitted to respond for intracranial electrical stimulation according to a modification of the discrete-trial current-threshold procedure developed by Kornetsky and colleagues ([Gill et al., 2004]), as previously described ([Fowler et al., 2013]; [Johnson et al., 2008]). […] The frequency of the stimulation was selected for each mouse so that current-intensity thresholds were within 25 to 400 μA, permitting threshold elevations and reductions to be reliably detected. This frequency for each mouse was held constant throughout the experiment. […] The time between the onset of the non-contingent stimulus and a positive response was recorded as the response latency. […] Effects of intraperitoneal injections of SR9883 on ICSS thresholds were assessed >7 days after minipump implantation. Concentration-response curves of SR9883 actions in nAChR-expressing HEK cells and oocytes were fitted to the Hill equation using a nonlinear least squares curve fit method and efficacy and potency values were calculated as previously described ([Wang et al., 2015]). […] For the ICSS threshold experiment, percentages of baseline reward threshold scores were calculated by expressing the absolute threshold scores as a percentage of the scores obtained during baseline. […] Response latency data were analyzed in the same manner as the threshold data. […] Effects of SR9883 on responding for food pellets in rats was analyzed by a two-tailed paired t test. […]"}},
  "note": "“Also recorded” adds a separate entry of the source.",
  "data": [
    {"smiles": "N#Cc1cccc(-n2nnc(-c3cccnc3)n2)c1", "note": "[SR9883, 3-(5-(pyridin-3-yl)-2H-tetrazol-2-yl)benzonitrile]", "values": [
      {"measurement": "EC50 (enhancement of response to EC20-30 nicotine)", "setting": "[1]", "result": "no effect; also recorded: No enhancement"},
      {"measurement": "ICSS response latencies", "setting": "male C57BL/6J mice; minipumps delivering either saline or nicotine", "result": "had no effect"},
      {"measurement": "ICSS thresholds", "setting": "male C57BL/6J mice; nicotine-delivering osmotic minipumps (24 mg kg^−1 per day), p = 0.0278 vs vehicle", "result": "elevated"},
      {"measurement": "ICSS thresholds", "setting": "male C57BL/6J mice; saline-delivering osmotic minipumps", "result": "had no effect"}
    ]}
  ]
}
